Measurements reported in patent publication US7951799B2, “Lactam compound, a method for producing the same, and a diabetic therapy by administering the same” (Ajinomoto Co., Inc., priority 2005, dated 2011).
Like-named read-outs stand apart in the source and are kept apart here.

What was measured:
[1] = test system: C57BL/KsJ-db/dbJcl mice; experiment: Evaluation of hypoglycemic action in pathologic mouse; type: in vivo; settings: 120 minutes after administration, fasted 20 hours
Experimental: (§1) C57BL/KsJ-db/dbJcl mice (8 to 9 weeks old) or GK/Jcl rats fasted for 20 hours were administered with the test compound by a single oral administration, blood was collected from the tail vein immediately before administration and 30, 60, 120 and 180 minutes after administration, and the blood glucose level was measured with Fuji DryChem5500 (glucose oxidase method). For the test animals, a group comprised 4 to 5 subjects, and the blood glucose level was determined as mean values. The test compound was administered by dissolving in an aqueous solution of 50% polyethyleneglycol 400, or 100% polyethyleneglycol 400.
(§2) The degrees of hypoglycemia calculated based on the blood glucose levels measured according to the methods described above are shown in Table 5 (mouse) and Table 6 (rat). The degree of hypoglycemia was calculated as the percentage of the difference between the blood glucose level at one time point 120 minutes after administration and blood glucose level immediately before administration, with respect to the blood glucose level immediately before administration.

[2] = test system: MDCK cells; experiment: Evaluation of membrane permeability using MDCK cells; settings: MDCK monolayer; mucous membrane side (pH 6.5) to basal membrane side (pH 7.4); 37° C.
Experimental: (§3) The compound of the present invention was evaluated for membrane permeability using MDCK cells, according to the method below.
(§4) An epithelial cell line derived from dog renal tubule, MDCK (Madin Darby Canine Kidney cell line), is cultured for 3 to 4 days in a flask containing 10% FBS-added D-MEM/F12 culture medium (Manufactured by Gibco) at 37° C. in a carbon dioxide incubator. The cells are detached from the flask with a Trypsin/EDTA solution (Manufactured by Gibco), and unicellularized by pipetting. The cells are suspended in the same medium as described above and placed in a transwell (mucous membrane-side well) of a Transwell plate (manufactured by COSTAR) at 2×10^5 cell/well in a volume of 0.1 ml. The transwell is transferred to the basal membrane-side well where 0.6 ml of the same culture medium has been placed, and the cells are cultured at 37° C. in a carbon dioxide incubator for 3 days. After the culture, the culture media in the mucous membrane-side well and the basal membrane-side well are exchanged for the same culture medium, incubated under the same condition for one day. Thus, satisfactory MDCK monolayer culture cells are obtained.
(§5) During in vitro permeation-absorption experiments, the culture media are eliminated from both wells, the mucous membrane-side well is washed with PBS buffer solution (pH 6.5), and the basal membrane-side well is washed with PBS buffer solution (pH 7.4). Next, 0.1 ml of PBS buffer solution (pH6.5) is added to the mucous membrane-side well, 0.6 ml of PBS buffer solution (pH 7.4) is added to the basal membrane-side well, and equilibration is carried out by incubating for 15 minutes in a 37° C. incubator.
(§6) The mucous membrane-side well is exchanged for 0.1 ml of a solution containing the test substance prepared with PBS buffer solution (pH6.5), and time point when the well is transferred to the basal membrane-side well substituted with 0.6 ml of PBS buffer solution (pH7.4) is taken as the permeation-absorption start time, and thereafter, sampling is performed from the basal membrane-side well over time. The amounts of test substance in the samples sampled in this way are measured by HPLC analysis, and the amount of the substance permeated and absorbed from the mucous membrane side to the basal membrane side according to the reaction time is determined to determine the permeation coefficient (cm/sec).

[3] = test system: rat adipocytes; experiment: Evaluation of sugar transport activity (2-[14C(U)]-deoxy-D-glucose incorporation); type: cell-based; settings: for EC50 (concentration of test compound corresponding to 50% enhancement action of sugar transport): enhancement action of insulin (100 nM) taken as 100%, 30 min preculture at 37° C.
Experimental: Three male Wistar rats (6 to 7 weeks old) were bled by decapitation, and then laparotomized to extract 3 g of paratesticular fat tissue. […] An amount of 8 mg of collagenase (Type I) was added to carry out digestion treatment for 35 minutes, and undigested fragments were eliminated with a nylon mesh to obtain approximately 3 ml of isolated adipocytes. Collagenase was eliminated by buffer exchange, then, 2% BSA/KRH solution was added for re-suspension to obtain 15 ml of adipocyte suspension. The evaluation of sugar transport activity of the compound of the present invention was carried out with the methods described in the literature (Annual Review of Biochemistry, Volume 55, Page 1059, 1986) as a reference. That is to say, the above adipocyte suspension was distributed into polystyrene test tube, 200 μl each, 100 μl of solution of test substance (10 mg/ml of dimethylsulfoxide solution diluted with KRH) was added, and cultured while shaking at 37° C. for 30 minutes.

[4] = test system: GK/Jcl rats; experiment: Evaluation of hypoglycemic action in pathologic rat; type: in vivo; settings: 120 minutes after administration, fasted 20 hours
Experimental: as §1, §2

[5] = test system: MDCK cells; settings: dog
Experimental: as §3, §4, §5, §6

[6] = 3 mg/kg single oral administration
[7] = 10 mg/kg single oral administration

Row | Compound | Degree of hypoglycemia [1, 6] [%] | Degree of hypoglycemia [1, 7] [%] | Permeation coefficient [2] | EC50 (concentration of test compound corresponding to 50% enhancement action of sugar transport) [3] [µg/mL] | also measured
1 | O=C1NCC2=C1[C@@H](c1cccc3ccoc13)N(C(=O)CO)[C@@H]1CCCC[C@H]1N2 [Example 1] | 4 | 51 | 8 10^−7 cm/sec | 0.65 | –
2 | COCC(=O)N1[C@@H]2CCCC[C@H]2NC2=C(C(=O)NC2)[C@H]1c1cccc2cc[nH]c12 [Example 5] | 28 | 41 | 20 10^−7 cm/sec | 0.26 | –
3 | O=C1NCC2=C1[C@@H](c1cccc3ccoc13)N(C(=O)C(F)F)[C@@H]1CCCC[C@H]1N2 [Example 6] | – | – | 8 10^−7 cm/sec | 0.58 | –
4 | O=C1NCC2=C1[C@@H](c1cccc3ccoc13)N(C(=O)C(F)(F)F)[C@@H]1CCCC[C@H]1N2 [Example 7] | – | – | – | 1.94 | –
5 | O=C1NCC2=C1[C@@H](c1cccc3ccsc13)N(C(=O)CO)[C@@H]1CCCC[C@H]1N2 [Example 8] | 26 | 23 | – | 0.61 | –
6 | Cc1cc2cccc([C@@H]3C4=C(CNC4=O)N[C@@H]4CCCC[C@H]4N3C(=O)CO)c2o1 [Example 9] | – | – | 40 10^−7 cm/sec | 0.92 | Degree of hypoglycemia [4, 6]: 30%; Degree of hypoglycemia [4, 7]: 37%
7 | Cc1cc2cccc([C@@H]3C4=C(CNC4=O)N[C@@H]4CCCC[C@H]4N3C(=O)CO)c2[nH]1 [Example 11] | – | – | – | 0.73 | –
8 | COCC(=O)N1[C@@H]2CCCC[C@H]2NC2=C(C(=O)NC2)[C@H]1c1cccc2cc(C)[nH]c12 [Example 12] | – | – | 20 10^−7 cm/sec | 0.63 | Degree of hypoglycemia [4, 7]: 34%
9 | O=C1NCC2=C1[C@@H](c1cccc3c1OCC3)N(C(=O)CO)[C@@H]1CCCC[C@H]1N2 [Example 13] | – | – | – | 0.90 | –
10 | O=C1NCC2=C1[C@@H](c1cccc3ccnn13)N(C(=O)CO)[C@@H]1CCCC[C@H]1N2 [Example 14] | – | – | – | 1.3 | Degree of hypoglycemia [4, 7]: 36%
11 | O=C1NCC2=C1[C@@H](c1cccc3cccnc13)N(C(=O)CO)[C@@H]1CCCC[C@H]1N2 [Example 16] | 12 | 36 | – | 1.36 | Permeation coefficient [5]: 9 10^−7 cm/sec
12 | O=C1NCC2=C1[C@@H](c1cccc3cccnc13)N(C(=O)C(F)F)[C@@H]1CCCC[C@H]1N2 [Example 17] | – | – | – | 0.59 | Permeation coefficient [5]: 10 10^−7 cm/sec; Degree of hypoglycemia [4, 7]: 35%
13 | CSc1ccsc1[C@@H]1C2=C(CNC2=O)N[C@@H]2CCCC[C@H]2N1C(=O)CO [Example 18] | 21 | 41 | – | 3.1 | –
14 | C=Cc1ccccc1[C@@H]1C2=C(CNC2=O)N[C@@H]2CCCC[C@H]2N1C(=O)CO [Example 19] | 31 | 36 | 10 10^−7 cm/sec | 0.45 | –
15 | insulin | – | – | – | – | sugar transport enhancement action compared to non-insulin added control group ([3]; insulin 100 nM): 3-9 times
